{"source": "patent US20070207980A1", "about": "“Chp-gemcitabine Combination Agents And Their Use As Anti-Tumor Agents” (priority 2003, published 2007)", "key": {"[1]": {"test_system": "BxPC3", "assay": "Effect of combined agents releasing gemcitabine first (Table 2)", "conditions": "no gemcitabine first", "description": "(§2) The chemosensitivity assay was performed in a 96-well microtiter plate with 10^4 cells per well and 100 μl of medium, and the components to be tested were supplied in a volume of 100 μl. All components were diluted on the microtiter plates, and the plates were incubated under cell culture conditions for 4 days, except for those tests wherein the ratio between application time and reaction was to be determined. The viability of the cells, including the mitochondrial activity, i.e., the ratio of cell survival rate and cell number, was determined using an MTT assay.\n(§3) Combined agents of the invention sequentially releasing CHP and gemcitabine were also tested. […] Agents were used in cell cultures, which agents initially release CHP, followed by gemcitabine after 24 hours and 48 hours, respectively. […] Combined agents were used which released 1 μg/ml gemcitabine, followed by CHP after 12, 24 and 48 hours, respectively."}, "[2]": {"test_system": "PANC-1 cells", "assay": "Effect of combined agents releasing gemcitabine first (Table 2)", "conditions": "no gemcitabine first", "description": "as §2, §3"}, "[3]": {"test_system": "ACHN", "assay": "Cell line screening of CHP anti-proliferation activity (chemosensitivity MTT assay)", "assay_type": "cell-based", "conditions": "Renal cell lines", "method": "(§1) Unless otherwise stated, cell lines from the American Type Culture Collection (ATCC, Rockville, Md.) were used and cultured to confluence in a monolayer in RPMI-1640 bicarbonate medium (Seromed, Berlin, Germany) in an incubator ([…], 37° C.). The cells were examined for mycoplasma contaminations. The medium included 10% heat-inactivated fetal calf serum (Seromed) and 4 mM glutamine. The cells were cultured and passaged according to standard procedures (0.03% trypsin with 0.02% EDTA, 3 times a week) . The cell number was determined using a TOA Sysmex micro-cell counter (TOA, Tokyo, Japan)."}, "[4]": {"test_system": "A498", "assay": "Cell line screening of CHP anti-proliferation activity (chemosensitivity MTT assay)", "assay_type": "cell-based", "conditions": "Renal cell lines", "method": "as §1"}, "[5]": {"test_system": "HCT-15", "assay": "Cell line screening of CHP anti-proliferation activity (chemosensitivity MTT assay)", "assay_type": "cell-based", "conditions": "Colon cell lines", "method": "as §1"}, "[6]": {"test_system": "CR01", "assay": "Cell line screening of CHP anti-proliferation activity (chemosensitivity MTT assay)", "assay_type": "cell-based", "conditions": "Carcinoids", "method": "as §1"}, "[7]": {"test_system": "PC3", "assay": "Cell line screening of CHP anti-proliferation activity (chemosensitivity MTT assay)", "assay_type": "cell-based", "conditions": "Prostate tissue", "method": "as §1"}, "[8]": {"test_system": "Fib2 (PPH)", "assay": "Cell line screening of CHP anti-proliferation activity (chemosensitivity MTT assay)", "assay_type": "cell-based", "conditions": "Fibroblasts", "method": "as §1"}, "[9]": {"test_system": "DLD1", "assay": "Cell line screening of CHP anti-proliferation activity (chemosensitivity MTT assay)", "assay_type": "cell-based", "conditions": "Colon cell lines", "method": "as §1"}, "[10]": {"test_system": "B607", "assay": "Cell line screening of CHP anti-proliferation activity (chemosensitivity MTT assay)", "assay_type": "cell-based", "conditions": "Melanoma", "method": "as §1"}, "[11]": {"test_system": "Me128", "assay": "Cell line screening of CHP anti-proliferation activity (chemosensitivity MTT assay)", "assay_type": "cell-based", "conditions": "Melanoma", "method": "as §1"}, "[12]": {"test_system": "Colo320DM", "assay": "Cell line screening of CHP anti-proliferation activity (chemosensitivity MTT assay)", "assay_type": "cell-based", "conditions": "Colon cell lines", "method": "as §1"}, "[13]": {"test_system": "Calc22", "assay": "Cell line screening of CHP anti-proliferation activity (chemosensitivity MTT assay)", "assay_type": "cell-based", "conditions": "Osteoblasts", "method": "as §1"}, "[14]": {"test_system": "SW480 (Ccl228)", "assay": "Cell line screening of CHP anti-proliferation activity (chemosensitivity MTT assay)", "assay_type": "cell-based", "conditions": "Colon cell lines", "method": "as §1"}, "[15]": {"test_system": "WI38", "assay": "Cell line screening of CHP anti-proliferation activity (chemosensitivity MTT assay)", "assay_type": "cell-based", "conditions": "Fibroblasts", "method": "as §1"}, "[16]": {"test_system": "ASPC1", "assay": "Cell line screening of CHP anti-proliferation activity (chemosensitivity MTT assay)", "assay_type": "cell-based", "conditions": "Pancreas cell lines", "method": "as §1"}, "[17]": {"test_system": "JVSO", "assay": "Cell line screening of CHP anti-proliferation activity (chemosensitivity MTT assay)", "assay_type": "cell-based", "conditions": "Melanoma", "method": "as §1"}, "[18]": {"test_system": "PANC1", "assay": "Cell line screening of CHP anti-proliferation activity (chemosensitivity MTT assay)", "assay_type": "cell-based", "conditions": "Pancreas cell lines", "method": "as §1"}, "[19]": {"test_system": "MIAPaCa2", "assay": "Cell line screening of CHP anti-proliferation activity (chemosensitivity MTT assay)", "assay_type": "cell-based", "conditions": "Pancreas cell lines", "method": "as §1"}, "[20]": {"test_system": "Fib3 (PPH)", "assay": "Cell line screening of CHP anti-proliferation activity (chemosensitivity MTT assay)", "assay_type": "cell-based", "conditions": "Fibroblasts", "method": "as §1"}, "[21]": {"test_system": "T47D", "assay": "Cell line screening of CHP anti-proliferation activity (chemosensitivity MTT assay)", "assay_type": "cell-based", "conditions": "Breast tissue", "method": "as §1"}, "[22]": {"test_system": "SW620(Ccl227)", "assay": "Cell line screening of CHP anti-proliferation activity (chemosensitivity MTT assay)", "assay_type": "cell-based", "conditions": "Colon cell lines", "method": "as §1"}, "[23]": {"test_system": "Colo205", "assay": "Cell line screening of CHP anti-proliferation activity (chemosensitivity MTT assay)", "assay_type": "cell-based", "conditions": "Colon cell lines", "method": "as §1"}, "[24]": {"test_system": "MCF-7", "assay": "Cell line screening of CHP anti-proliferation activity (chemosensitivity MTT assay)", "assay_type": "cell-based", "conditions": "Breast tissue", "method": "as §1"}, "[25]": {"test_system": "MDA-MBA231", "assay": "Cell line screening of CHP anti-proliferation activity (chemosensitivity MTT assay)", "assay_type": "cell-based", "conditions": "Breast tissue", "method": "as §1"}, "[26]": {"test_system": "HT29", "assay": "Cell line screening of CHP anti-proliferation activity (chemosensitivity MTT assay)", "assay_type": "cell-based", "conditions": "Colon cell lines", "method": "as §1"}, "[27]": {"test_system": "Capanl", "assay": "Cell line screening of CHP anti-proliferation activity (chemosensitivity MTT assay)", "assay_type": "cell-based", "conditions": "Pancreas cell lines", "method": "as §1"}, "[28]": {"test_system": "BxPC3", "assay": "Cell line screening of CHP anti-proliferation activity (chemosensitivity MTT assay)", "assay_type": "cell-based", "conditions": "Pancreas cell lines", "method": "as §1"}, "[29]": {"test_system": "CR02", "assay": "Cell line screening of CHP anti-proliferation activity (chemosensitivity MTT assay)", "assay_type": "cell-based", "conditions": "Carcinoids", "method": "as §1"}, "[30]": {"test_system": "HOS", "assay": "Cell line screening of CHP anti-proliferation activity (chemosensitivity MTT assay)", "assay_type": "cell-based", "conditions": "Osteosarcoma tissue", "method": "as §1"}, "[31]": {"test_system": "A518", "assay": "Cell line screening of CHP anti-proliferation activity (chemosensitivity MTT assay)", "assay_type": "cell-based", "conditions": "Melanoma", "method": "as §1"}, "[32]": {"test_system": "K562", "assay": "Cell line screening of CHP anti-proliferation activity (chemosensitivity MTT assay)", "assay_type": "cell-based", "conditions": "Leukemia cells", "method": "as §1"}}, "data": [{"smiles": "O=C(O)[C@@H]1C[C@@H](O)CN1", "note": "(relative stereo) [CHP, cis-hydroxyproline]", "values": [{"measurement": "BxPC3 control", "setting": "[1]; CHP 6.1 μg/ml", "result": "103.5 ± 2.6"}, {"measurement": "BxPC3 control", "setting": "[1]; CHP 12.5 μg/ml", "result": "102.6 ± 1.7"}, {"measurement": "BxPC3 control", "setting": "[1]; CHP 25 μg/ml", "result": "99.9 ± 3.1"}, {"measurement": "BxPC3 control", "setting": "[1]; CHP 50 μg/ml", "result": "99.8 ± 4.3"}, {"measurement": "BxPC3 control", "setting": "[1]; CHP 100 μg/ml", "result": "105.2 ± 5.4"}, {"measurement": "PANC-1 control", "setting": "[2]; CHP 3 μg/ml", "result": "98.8 ± 4.0"}, {"measurement": "PANC-1 control", "setting": "[2]; CHP 6.1 μg/ml", "result": "96.0 ± 6.0"}, {"measurement": "PANC-1 control", "setting": "[2]; CHP 12.5 μg/ml", "result": "90.8 ± 4.1"}, {"measurement": "PANC-1 control", "setting": "[2]; CHP 25 μg/ml", "result": "95.9 ± 5.1"}, {"measurement": "PANC-1 control", "setting": "[2]; CHP 50 μg/ml", "result": "94.8 ± 6.4"}, {"measurement": "PANC-1 control", "setting": "[2]; CHP 100 μg/ml", "result": "95.1 ± 2.3"}, {"measurement": "Reaction (CHP anti-proliferation activity)", "setting": "[3]", "result": "resistant"}, {"measurement": "Reaction (CHP anti-proliferation activity)", "setting": "[4]", "result": "−6", "unit": "%"}, {"measurement": "Reaction (CHP anti-proliferation activity)", "setting": "[5]", "result": "−10", "unit": "%"}, {"measurement": "Reaction (CHP anti-proliferation activity)", "setting": "[6]", "result": "−35", "unit": "%"}, {"measurement": "Reaction (CHP anti-proliferation activity)", "setting": "[7]", "result": "resistant"}, {"measurement": "Reaction (CHP anti-proliferation activity)", "setting": "[8]", "result": "resistant"}, {"measurement": "Reaction (CHP anti-proliferation activity)", "setting": "[9]", "result": "−19.8", "unit": "%"}, {"measurement": "Reaction (CHP anti-proliferation activity)", "setting": "[10]", "result": "−12", "unit": "%"}, {"measurement": "Reaction (CHP anti-proliferation activity)", "setting": "[11]", "result": "resistant"}, {"measurement": "Reaction (CHP anti-proliferation activity)", "setting": "[12]", "result": "−11", "unit": "%"}, {"measurement": "Reaction (CHP anti-proliferation activity)", "setting": "[13]", "result": "+8%"}, {"measurement": "Reaction (CHP anti-proliferation activity)", "setting": "[14]", "result": "−58", "unit": "%"}, {"measurement": "Reaction (CHP anti-proliferation activity)", "setting": "[15]", "result": "resistant"}, {"measurement": "Reaction (CHP anti-proliferation activity)", "setting": "[16]", "result": "−42", "unit": "%"}, {"measurement": "Reaction (CHP anti-proliferation activity)", "setting": "[17]", "result": "−15", "unit": "%"}, {"measurement": "Reaction (CHP anti-proliferation activity)", "setting": "[18]", "result": "−54", "unit": "%"}, {"measurement": "Reaction (CHP anti-proliferation activity)", "setting": "[19]", "result": "−45.7", "unit": "%"}, {"measurement": "Reaction (CHP anti-proliferation activity)", "setting": "[20]", "result": "−14", "unit": "%"}, {"measurement": "Reaction (CHP anti-proliferation activity)", "setting": "[21]", "result": "−34", "unit": "%"}, {"measurement": "Reaction (CHP anti-proliferation activity)", "setting": "[22]", "result": "−66.4", "unit": "%"}, {"measurement": "Reaction (CHP anti-proliferation activity)", "setting": "[23]", "result": "−66", "unit": "%"}, {"measurement": "Reaction (CHP anti-proliferation activity)", "setting": "[24]", "result": "−43", "unit": "%"}, {"measurement": "Reaction (CHP anti-proliferation activity)", "setting": "[25]", "result": "resistant"}, {"measurement": "Reaction (CHP anti-proliferation activity)", "setting": "[26]", "result": "−48", "unit": "%"}, {"measurement": "Reaction (CHP anti-proliferation activity)", "setting": "[27]", "result": "−66", "unit": "%"}, {"measurement": "Reaction (CHP anti-proliferation activity)", "setting": "[28]", "result": "−41", "unit": "%"}, {"measurement": "Reaction (CHP anti-proliferation activity)", "setting": "[29]", "result": "−13", "unit": "%"}, {"measurement": "Reaction (CHP anti-proliferation activity)", "setting": "[30]", "result": "−68", "unit": "%"}, {"measurement": "Reaction (CHP anti-proliferation activity)", "setting": "[31]", "result": "resistant"}, {"measurement": "Reaction (CHP anti-proliferation activity)", "setting": "[32]", "result": "−11", "unit": "%"}]}]}
